[invdT] = inverted (3'-3') thymidine
How the values were obtained:
[1] = system: senescent human IMR-90 fibroblast cells; type: cell-based; settings: increasing concentrations (FIGS. 6A-C, 12A-C)
Procedure: Human IMR-90, BJ, WI-38 fibroblasts and REC epithelial cells were obtained from ATCC and grown at 5% oxygen. IMR-90 and REC cells were maintained in DMEM medium comprising 100 units per ml of penicillin, […] of streptomycin and 10% fetal bovine serum. BJ and WI-38 cells were maintained in EMEM medium comprising 100 units per ml of penicillin, […] of streptomycin, 10% fetal bovine serum, 1% Pyruvate, 1% L-Glutamine, mLFs were isolated according to standard procedures [Seluanov, A., et al. J Vis Exp (2010) (44):2033] and grown at 5% oxygen. Cells were maintained in EMEM medium comprising 100 units per ml of penicillin, […] of streptomycin and 15% fetal bovine serum.
DNA damage induced senescence (DIS) was induced by etoposide treatment (E1383, Sigma) at a concentration of […] for IMR-90, BJ, and WI-38, 16 μM for mLF and 12.5 μM for REC for a duration of 48 hours. Cells acquired the senescence phenotype 7 days post treatment (determined by SA-beta-gal staining).
Oncogene Induced Senescence (OIS) was induced by means of retroviral infection with H-RasG12 (pLNCX2) at 5% oxygen. Retroviruses were packaged, and infections were performed as described below.
Replicative Induced Senescence (RIS) was induced by long-term passaging of the cells in tissue culture. Cells acquired the senescence phenotype after 40 population doublings.
Primary target cells (IMR-90, BJ, […]) were plated in 24-well plates at 100,000 cells per well. Cells were transfected with different concentrations of DNAzymes (as depicted in Table 2, below) using Lipofectamine™ 2000 (Invitrogen) according to manufacturer instructions. The percentage of survival was determined based on quantification of remaining adherent cells using PrestoBlue® reagent (A13262, Life Technologies Ltd.) relative to Lipofectamine™ only control and compared to Scramble DNAzyme (Dz_Scramble) [Scramble Arm (Scr A) sequence: ATCTTCCTFggctagctacaacgaCGCCTCTCC, SEQ ID NO: 5, or Scramble catalytic core (Scr B) sequence: AGGAGAACAacagtaactggcgacGGGATGAGG, SEQ ID NO: 86] treated cells, 3-6 days following transfection.

[2] = system: human p21 mRNA; assay: In vitro cleavage assay of human p21 mRNA; type: biochemical; settings: in vitro cleavage of p21 mRNA (SEQ ID NO: 1); RNA substrate 500 nM, 37° C. 60 min, agarose gel
Excerpt: Total RNA was isolates from senescent IMR-90 cells using Nucleospin® RNA kit (Macherey-Nagel™). cDNA was synthesized with gene-specific reverse primers using M-MLV Reverse Transcriptase (Promega), according to the manufacturer's protocol. To generate template for in vitro transcription (IVT) reaction, the cDNA was PCR amplified using KAPA Taq EXtra HotStart® ReadyMix™ PCR Kit (R&D). PCR product was run on 1.5% agarose TAE gel, the correct band size was cut and DNA was cleaned using Wizard® SV Gel and PCR Clean-Up System kit (Promega). IVT was performed using HiScribe™ T7 High Yield RNA Synthesis Kit (NEB). Samples were then treated with DNase I (New England Biolabs) and incubated for 15 minutes at 37° C. IVT product was run on 1.5% agarose TBE gel, the correct band size was cut and RNA was cleaned using QIAquick® Gel Extraction Kit (Qiagen). See primer sequences in Table 1, below.
RNA substrate was diluted with Molecular Biology Grade Water (Biological Industries) and used in in vitro cleavage assay. A 20 μl reaction system comprising RNA substrate (final concentration 500 nM), 2 μl 10× reaction buffer (50 mM Tris-HCl pH 7.4, 100 mM NaCl, 10 mM MgCl2) and 1 μl DNAzyme (10 μM) (as depicted in Table 2, below) was mixed. Reactions were incubated at 37° C. for 60 min. 2×RNA L.D. (Thermo Fisher) was added to each sample. Samples were heated at 70° C. for 30 sec, centrifuged and loaded onto 1.5% agarose TBE gels. Quantification was performed using Image Lab software (Bio Rad).

[3] = system: p21 mRNA; assay: Quantitative RT-PCR of p21 mRNA in senescent cells; type: cell-based, human; settings: over 24 hours following treatment, 2000 nM (FIG. 5D)
Procedure: Total RNA was extracted from IMR-90 cells using NucleoSpin® RNA (Macherey-Nagel™), according to the manufacturer protocol. Complementary DNA was prepared using the M-MLV Reverse Transcriptase (Promega), according to the manufacturer protocol. Quantitative real-time PCR was performed using the SYBR Green PCR master-mix (Applied Biosystems) on a CFX96 Real-Time PCR System (Bio Rad). See primer sequences in Table 1, above.

[4] = system: healthy C57/B6 mice; assay: In-vivo safety of DNAzyme in mice
Procedure: 8 weeks old male and female C57/BL6 were treated intranasally with DNAzyme 1670 for 14 days. DNAzyme was administered in three concentrations: 40, 200 and 1000 μg. PBS treated mice served as control. Body weight, viability, clinical signs and behavior were monitored daily. On day 14, blood was collected using cardiac puncture and mice were sacrificed thereafter. Blood analyses were performed by AML (Central Lab Services). Hematology was performed using Advia-2120 (Siemens Healthineers). Biochemistry was performed using COBAS® 6000 (Roche Diagnostics).

**Q.** “DNAzyme 985: SEQ ID NO: 36: GGGGGCGGtccgagccggacgaAGGGTATGT (GGGGGCGGTCCGAGCCGGACGAAGGGTATGT; DNA, backbone and methylation of C not given here)” was tested. Which “selectivity of killing, senescent versus growing IMR-90 cells” value [1] did it give?
**A.** wide range of selective doses

**Q.** What about the Validated cleavage [2] of the same substance?
**A.** validated for mediating cleavage of p21 mRNA

**Q.** And the “p21 mRNA knockdown” value [3]?
**A.** 73%

**Q.** Which results are given for “DNAzyme 1670 comprising a 3′Inverted dT: DNAzyme 1670 (SEQ ID NO: 54) with a 3′ inverted dT modification (DNA GGGAAAGGAGGCTAGCTACAACGAAAGGGGGAG; DNA, all phosphodiester, 3' [invdT], methylation of C not given here; further chemistry not fully specified)”?
**A.** blood tests: complete blood count and biochemistry parameters ([4]; 2 week endpoint (FIGS. 13G-O)): safe profile; signs of pain or distress ([4]; 40, 200, 1000 micrograms intranasally daily for 2 weeks): no obvious signs of pain or distress; body weight between groups ([4]; 40, 200, 1000 micrograms intranasally daily for 2 weeks (FIG. 13F)): no significant differences

**Q.** Which Validated cleavage [2] does the source give for “DNAzyme 1641: SEQ ID NO: 53: AGAGGGGAAggctagctacaacgaTGCAGAGCC (DNA AGAGGGGAAGGCTAGCTACAACGATGCAGAGCC; DNA, backbone and methylation of C not given here)” here?
**A.** validated for mediating cleavage of p21 mRNA

**Q.** For “DNAzyme 1116: SEQ ID NO: 41: AAAGGAGAAggctagctacaacgaACGGGAUGA (DNA AAAGGAGAAGGCTAGCTACAACGAACGGGAUGA; DNA, backbone, methylation of C and T or U not given here)”, which Validated cleavage [2] is on record?
**A.** validated for mediating cleavage of p21 mRNA

**Q.** Which Validated cleavage [2] does the source give for “DNAzyme 1683: SEQ ID NO: 55: AGAGGGTAtccgagccggacgaGAAGGGAAA (DNA AGAGGGTATCCGAGCCGGACGAGAAGGGAAA; DNA, backbone and methylation of C not given here)” here?
**A.** validated for mediating cleavage of p21 mRNA

**Q.** How did the Validated cleavage [2] turn out when “DNAzyme 354: SEQ ID NO: 23: CGGTTCTGAggctagctacaacgaATGGCGCCT (DNA CGGTTCTGAGGCTAGCTACAACGAATGGCGCCT; DNA, backbone and methylation of C not given here)” was run?
**A.** validated for mediating cleavage of p21 mRNA

**Q.** For “DNAzyme 1986: SEQ ID NO: 72: GCAATGAAtccgagccggacgaGGGGAGGGA (DNA GCAATGAATCCGAGCCGGACGAGGGGAGGGA; DNA, backbone and methylation of C not given here)”, which Validated cleavage [2] is on record?
**A.** validated for mediating cleavage of p21 mRNA

**Q.** “DNAzyme 1991: SEQ ID NO: 74: AAAGTGCAAggctagctacaacgaGAACTGGGG (DNA AAAGTGCAAGGCTAGCTACAACGAGAACTGGGG; DNA, backbone and methylation of C not given here)” was tested. Which Validated cleavage [2] did it give?
**A.** validated for mediating cleavage of p21 mRNA

**Q.** Which Validated cleavage [2] does the source give for “DNAzyme 1854: SEQ ID NO: 65: CCTGTGCCAggctagctacaacgaCACATGGGA (DNA CCTGTGCCAGGCTAGCTACAACGACACATGGGA; DNA, backbone and methylation of C not given here)” here?
**A.** validated for mediating cleavage of p21 mRNA

**Q.** Which Validated cleavage [2] does the source give for “DNAzyme 1838: SEQ ID NO: 63: GGACCCTCAggctagctacaacgaCCCCACAGC (DNA GGACCCTCAGGCTAGCTACAACGACCCCACAGC; DNA, backbone and methylation of C not given here)” here?
**A.** validated for mediating cleavage of p21 mRNA

**Q.** For “DNAzyme 1947: SEQ ID NO: 69: GCTGGACGAggctagctacaacgaTTGAGGGGC (DNA GCTGGACGAGGCTAGCTACAACGATTGAGGGGC; DNA, backbone and methylation of C not given here)”, which Validated cleavage [2] is on record?
**A.** validated for mediating cleavage of p21 mRNA

**Q.** How did the Validated cleavage [2] turn out when “DNAzyme 1467: SEQ ID NO: 46: TTCACAAGAggctagctacaacgaAGAGGGGGG (DNA TTCACAAGAGGCTAGCTACAACGAAGAGGGGGG; DNA, backbone and methylation of C not given here)” was run?
**A.** validated for mediating cleavage of p21 mRNA

**Q.** “DNAzyme 541: SEQ ID NO: 30: GCUCCCAGGggctagctacaacgaGAAGUCACC (DNA GCUCCCAGGGGCTAGCTACAACGAGAAGUCACC; DNA, backbone, methylation of C and T or U not given here)” was tested. Which Validated cleavage [2] did it give?
**A.** validated for mediating cleavage of p21 mRNA

**Q.** Which Validated cleavage [2] does the source give for “DNAzyme 1504: SEQ ID NO: 47: GGGGTGGTtccgagccggacgaGCTCCAGGA (DNA GGGGTGGTTCCGAGCCGGACGAGCTCCAGGA; DNA, backbone and methylation of C not given here)” here?
**A.** validated for mediating cleavage of p21 mRNA

— patent US11879140B2, “P21 mRNA targeting DNAzymes” (1E Therapeutics Ltd., priority 2020, dated 2024)
